In US9481610B2, “Use of a fertilizer containing L-amino acid for improving root growth and growth of mycorrhiza” (SweTree Technologies AB, priority 2007, dated 2016):

Key:
Scots pine roots = experiment: Evaluation of mycorrhiza of Scots pine roots (chitin content); assay type: in vivo; conditions: fertilization with arginine
Arabidposis thaliana = experiment: Growth and allocation of biomass as affected by nitrogen form in Arabidopsis; assay type: in vivo; conditions: sterile culture 21 days, total nitrogen 6 mM

| Compound | chitin content of roots versus reference (in words) (Scots pine roots) | Root fraction (Arabidposis thaliana) | Total biomass (Arabidposis thaliana) |
| --- | --- | --- | --- |
| N=C(N)NCCC[C@H](N)C(=O)O [L-Arginine] | substantially higher content of chitin in roots | – | – |
| O=[N+]([O-])O [nitrate] | – | 0.12 | 4.63 |
